GI50 and TGI data for eleven compounds are collected here from PubChem BioAssay (NCI).

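Five compound concentrations were applied to cells in 96-well plates for 48 hours; endpoints were derived by simple linear interpolation of the resulting dose-response curve. GI50 = concentration required for 50% inhibition of growth. TGI: total growth inhibition.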

Among the test systems are NCI-H226 lung; DU-145 prostate; HL-60(TB) leukemia; MOLT-4 leukemia; SK-MEL-28 melanoma; M14 melanoma; COLO 205 colon; OVCAR-5 ovarian.
Common to all, as to experiment: growth of human tumour cells (NCI), 48 h

With `COc1cc2ncnc(Nc3cccc(Cl)c3F)c2cc1OC(=O)N1CCN(C)C[C@H]1C`, the GI50 in the experiment with NCI-H226 lung is more than 45.9 µM; in the experiment on DU-145 prostate, 7.35 µM; in the experiment with HL-60(TB) leukemia it was more than 47.3 µM; with MOLT-4 leukemia it was more than 46.2 µM; with SK-MEL-28 melanoma, more than 42.2 µM; with M14 melanoma, more than 40.9 µM. Moreover, the GI50 is more than 38.1 µM with COLO 205 colon and more than 32.7 µM in the experiment with OVCAR-5 ovarian. Further, the TGI was more than 75.6 µM in the experiment with NCI-H226 lung; more than 100 µM in the experiment with DU-145 prostate; more than 70.5 µM in the experiment with HL-60(TB) leukemia; more than 81.3 µM in the experiment with MOLT-4 leukemia; more than 65.5 µM in the experiment on SK-MEL-28 melanoma; more than 62.8 µM in the experiment with M14 melanoma. Moreover, the TGI was more than 58.1 µM with COLO 205 colon and more than 90.8 µM in the experiment with OVCAR-5 ovarian.

Consider `c1ccc2cc(NCNc3ccc4ccccc4c3)ccc2c1`, for which the TGI in the experiment with NCI-H226 lung is 46.5 µM; in the experiment on DU-145 prostate, 27.4 µM; in the experiment with HL-60(TB) leukemia, 3.79 µM; in the experiment with MOLT-4 leukemia it was 29.9 µM; in the experiment with SK-MEL-28 melanoma, more than 88.9 µM; in the experiment with M14 melanoma, 29.1 µM. The TGI in the experiment on COLO 205 colon stood at 34.3 µM; in the experiment on OVCAR-5 ovarian it was 51.5 µM.

`COc1cc(C(=O)N2CCN(c3ccccc3)CC2)c2ccccc2n1`: the GI50 in the experiment with NCI-H226 lung is 12.7 µM; in the experiment with DU-145 prostate, 0.0648 µM; with HL-60(TB) leukemia it was 0.11 µM; with MOLT-4 leukemia it was 0.863 µM; in the experiment on SK-MEL-28 melanoma, more than 100 µM; in the experiment on M14 melanoma, 0.0582 µM. The GI50 was 0.0623 µM in the experiment on COLO 205 colon and 0.586 µM in the experiment on OVCAR-5 ovarian. Also, the TGI in the experiment on NCI-H226 lung was more than 100 µM; with DU-145 prostate it was 0.468 µM; in the experiment with MOLT-4 leukemia it was more than 100 µM; with SK-MEL-28 melanoma, more than 100 µM; in the experiment on M14 melanoma, 0.805 µM; with COLO 205 colon, 0.659 µM. Besides, in the experiment with OVCAR-5 ovarian, the TGI is more than 100 µM.

As for `COc1cc(/C(=C2/O[C@@H]([C@H]3COC(C)(C)O3)[C@H]3OC(C)(C)O[C@@H]23)c2ccc3ccccc3c2)cc(OC)c1OC`, the GI50 in the experiment with NCI-H226 lung was 3.49 µM; with DU-145 prostate, 4.33 µM; in the experiment on HL-60(TB) leukemia it was 74.9 µM; with MOLT-4 leukemia it was more than 100 µM; in the experiment on SK-MEL-28 melanoma, 2.86 µM; in the experiment with M14 melanoma, 6.7 µM. Also, the GI50 was 6.97 µM with COLO 205 colon and 14 µM with OVCAR-5 ovarian. The TGI in the experiment with NCI-H226 lung is 60 µM; with DU-145 prostate it was more than 100 µM; with HL-60(TB) leukemia, more than 100 µM; in the experiment on MOLT-4 leukemia, more than 100 µM; in the experiment with SK-MEL-28 melanoma, 9.65 µM; in the experiment on M14 melanoma it was 23.8 µM. In addition, the TGI with COLO 205 colon and in the experiment on OVCAR-5 ovarian was more than 100 µM each time.

As for `CC1(C)CC[C@]2(C(=O)O)CC[C@]3(C)C(=CC[C@@H]4[C@@]5(C)C[C@H](O)[C@H](O)[C@@](C)(C(=O)O)[C@@H]5CC[C@]43C)[C@@H]2C1`, the TGI is more than 100 µM with NCI-H226 lung; more than 100 µM with DU-145 prostate; more than 31.6 µM in the experiment on HL-60(TB) leukemia; more than 100 µM in the experiment on MOLT-4 leukemia; more than 100 µM in the experiment on SK-MEL-28 melanoma; more than 100 µM with M14 melanoma. Further, the TGI in the experiment on COLO 205 colon and in the experiment on OVCAR-5 ovarian was more than 100 µM each time.

Regarding `C=C1C(=O)O[C@H]2C[C@@H]1CC/C(C)=C/CC/C(C)=C/CC[C@@]2(C)O`, the GI50 was 24.4 µM in the experiment on NCI-H226 lung; 45.3 µM with DU-145 prostate; 20.7 µM with HL-60(TB) leukemia; 24.5 µM in the experiment with MOLT-4 leukemia; 37.2 µM in the experiment on SK-MEL-28 melanoma; 44.4 µM in the experiment with M14 melanoma. Besides, the figures for the GI50 in the experiment on COLO 205 colon and in the experiment with OVCAR-5 ovarian were 44.2 µM and more than 100 µM, respectively. Besides, the TGI in the experiment on NCI-H226 lung is 58.1 µM; with DU-145 prostate it was more than 100 µM; in the experiment on HL-60(TB) leukemia, 45.7 µM; in the experiment on MOLT-4 leukemia, more than 100 µM; in the experiment with SK-MEL-28 melanoma it was more than 100 µM; with M14 melanoma, more than 100 µM. The TGI in the experiment on COLO 205 colon and with OVCAR-5 ovarian was more than 100 µM throughout.

On to `CCNC(=O)Nc1ccc(Oc2ccnc3ccc4c(ccn4C)c23)cc1`, for which the GI50 in the experiment with NCI-H226 lung was 28.2 µM; in the experiment on DU-145 prostate, more than 100 µM; in the experiment on HL-60(TB) leukemia, more than 100 µM; in the experiment on MOLT-4 leukemia, 58.2 µM; with SK-MEL-28 melanoma, 9.33 µM; with M14 melanoma, more than 100 µM. The GI50 was 29.8 µM in the experiment on COLO 205 colon and more than 100 µM in the experiment on OVCAR-5 ovarian. Further, the TGI was 72.8 µM with NCI-H226 lung; more than 100 µM in the experiment with DU-145 prostate; more than 100 µM in the experiment with HL-60(TB) leukemia; more than 100 µM in the experiment with MOLT-4 leukemia; more than 100 µM with SK-MEL-28 melanoma; more than 100 µM in the experiment with M14 melanoma. Moreover, the TGI in the experiment on COLO 205 colon and in the experiment with OVCAR-5 ovarian was more than 100 µM each time.

For the compound `CN(C)CCCCC(C(=O)CBr)(c1ccccc1)c1ccccc1`, the GI50 with NCI-H226 lung was 2.38 µM; in the experiment on DU-145 prostate it was 1.66 µM; in the experiment with HL-60(TB) leukemia, 1.22 µM; with MOLT-4 leukemia it was 1.92 µM; in the experiment on SK-MEL-28 melanoma, 1.77 µM; in the experiment on M14 melanoma, 1.5 µM. Also, the values for the GI50 in the experiment on COLO 205 colon and with OVCAR-5 ovarian were 1.78 µM and 3.06 µM, respectively. For the same compound, the TGI in the experiment with NCI-H226 lung was determined as 8.39 µM; with DU-145 prostate it was 3.63 µM; in the experiment on HL-60(TB) leukemia, 3.95 µM; in the experiment on MOLT-4 leukemia, 5.67 µM; in the experiment with SK-MEL-28 melanoma it was 3.49 µM; in the experiment on M14 melanoma, 3.95 µM. The TGI is 3.95 µM with COLO 205 colon and 10.9 µM in the experiment on OVCAR-5 ovarian.

Turning to `CONC(C)=O`, the TGI in the experiment with NCI-H226 lung, in the experiment on DU-145 prostate, in the experiment on HL-60(TB) leukemia, with MOLT-4 leukemia, in the experiment with SK-MEL-28 melanoma and in the experiment with M14 melanoma was more than 100 µM in each case. Besides, the TGI in the experiment on COLO 205 colon and in the experiment with OVCAR-5 ovarian was more than 100 µM each time.

Take `CC1=NN(c2ccc(S(=O)(=O)O)cc2)C(=O)/C1=C/c1ccc(Cl)cc1`: the TGI in the experiment on NCI-H226 lung, with DU-145 prostate, in the experiment with HL-60(TB) leukemia, in the experiment on MOLT-4 leukemia, in the experiment with SK-MEL-28 melanoma and in the experiment on M14 melanoma was more than 100 µM each time. The TGI in the experiment on COLO 205 colon and in the experiment with OVCAR-5 ovarian was more than 100 µM in each case.

As to `N=N/C(=C\c1c(O)[nH]c2ccccc12)c1ccccc1`, the TGI with NCI-H226 lung was 99.1 µM; with DU-145 prostate, more than 100 µM; in the experiment on HL-60(TB) leukemia it was 17.5 µM; in the experiment on MOLT-4 leukemia, more than 100 µM; in the experiment on SK-MEL-28 melanoma, more than 100 µM; in the experiment on M14 melanoma, more than 65.9 µM. Also, the TGI in the experiment on COLO 205 colon was 54.6 µM; in the experiment on OVCAR-5 ovarian, more than 100 µM.
